Values after ≈ are worked out from the molar mass of the structure shown.

The IC50 is the concentration that gives 50% inhibition. As usually defined, the IC30 is the concentration at which the effect reaches the 30% level.

The target of this test is T1, HIV-1 protease (Human immunodeficiency virus type 1 group M subtype B, UniProt P04585).
T1 construct: Purified HIV-1 protease was obtained as described above; made in house; host or cells: E. coli K12 L507/pHP10D (NRRL B-18560)
Kind of test: biochemical. The class given is biochemical. To be noted: for IC50: read-out: Fluorescence Assay IC50 (converted); for IC3: read-out: Fluorescence Assay IC3. As to the method:
C. Preparation of Protease Fraction
A culture of E. coli K12 L507/pHP10D was grown to mid-log phase at 32° C. in LB media containing 12.5 μg/ml tetracycline. The cultivation temperature was quickly elevated to 40° C. to induce gene expression, and the cells were allowed to grow for 2.5 hours at this temperature before the culture was quickly chilled on ice. The cells were centrifuged and the cell pellet was resuspended in 20 mL 50 mmol MES buffer (pH 6.0) containing 1 mmol EDTA, 1 mmol DTT, 1 mmol PMSF and 10% glycerol ("Buffer A"). Cells were lysed by sonication using a Fischer Model 300 Dismembrator and a microtip probe. Following centrifugation at 27,000×g, the supernatant was diluted to a total volume of 60 mL with Buffer A and loaded onto a 2.0×19 cm QAE-Sepharose column (1 mL/min, 4° C.), that had been equilibrated in Buffer A. The column was washed isocratically for 180 min and then eluted with a gradient eluent of 0-1.0M sodium chloride in Buffer A over 120 min. Enzymatic activity was measured by HPLC using the synthetic peptide SQNYPIV as described in Margolin et al., Biochem. Biophys. Res. Commun., 167, 554-560 (1990); the production of the p1 peptide (SQNY) was measured.
The active fractions were combined, made 1.2M in ammonium sulfate, and applied to a 2.0×18 cm hexyl agarose column that had been equilibrated in Buffer A containing 1.2M ammonium sulfate. The sample was loaded at a flow rate of 1 mL/min at 4° C., washed with the equilibration buffer for 240 min (1 mL/min) and then eluted using a reverse linear gradient of 1.2-0M ammonium sulfate in Buffer A for 120 min at the same flow rate. The column was then washed isocratically in Buffer A for 120 min.
The active fractions were combined, concentrated to 10 mL using an Amicon stirred cell with a YM-10 membrane and then applied to a MonoS cation exchange column (1.0×10 cm) that had been equilibrated in Buffer A. The sample was loaded at a flow rate of 1 mL/min at 25° C. After washing isocratically for 30 min, the protease was eluted using a linear gradient of 0-0.45M sodium chloride in Buffer A over 40 min. The column was washed isocratically in Buffer A containing 0.45M sodium chloride for 30 min.
The active fractions were combined and concentrated to 200 μL using an Amicon stirred cell and a YM-10 membrane and then the protease was applied to a Superose 6 size exclusion column equilibrated in Buffer A containing 0.1M sodium chloride.
The purified peptide was labeled with a fluorescent marker at the C-terminal end for use in the Pandex assay. N^α -Biotin-[…]OH SEQ ID NO:3. (1.206 g, 0.936 mmol) was dissolved in 100 mL of 0.1M sodium borate, pH 9.5. Then, a solution of 3 g (7.7 mmol) of fluorescein isothiocyanate in 15 mL dimethyl sulfoxide was added to the reaction mixture in 10 equal portions over two hours. The resulting mixture was allowed to react for one hour after the final addition. The solution was adjusted to pH 3 using 5N hydrochloric acid, resulting in the formation of a precipitate which was removed by centrifugation.
E. Fluorescence HIV-1 Protease Inhibitor Assay
The following buffers and solutions are used in the Fluorescence HIV-1 Protease Inhibitor Assay:
MES-ALB Buffer: 0.05M 4-morpholineethane
Avidin Coated 0.1% solution of Fluoricon
Beads Solution: Avidin Assay Particles
(Avidin conjugated to solid
polystyrene beads, 0.6-0.8
microns in diameter in TBSA
27 IU/mL of purified HIV-1
protease in MES-ALB buffer
(1 IU equals the amount of
enzyme required to hydrolyze
1 μmole of substrate per
To each well of a round bottom, 96-well plate is added 20 μL of the Enzyme Solution followed by 10 μL of the compound to be evaluated in a 20% aqueous dimethylsulfoxide solution. Purified HIV-1 protease was obtained as described above.

Take `Cn1nnnc1[S+]([O-])C[C@@H](NS(C)(=O)=O)C(=O)N[C@@H](Cc1ccccc1)[C@H](O)Cc1ccccc1C(=O)NC(C)(C)C` (stereo partly drawn) [Example 39D, [2R-(2R*,3S*,6S*)]-N-t-Butyl-2-[2-hydroxy-3-phenylmethyl-4-aza-5-oxo-6-N(methylsulfonyl)amino-7-N-(methyl)tetrazolylsulfinyl)]heptyl benzamide]: the IC50 was 1.4 nM. For the molecule `CC(C)(C)NC(=O)c1ccccc1C[C@@H](O)[C@H](Cc1ccccc1)NC(=O)[C@@H](CSc1ccc(F)cc1)NS(C)(=O)=O` [Example 37C, [2R-(2R*,3S*,6S*)]-N-t-Butyl-2-[2-hydroxy-3-phenylmethyl-4-aza-5-oxo-6-N(methylsulfonyl)amino-7-(p-fluorophenylthio)]heptyl benzamide], the IC50 was 1.79 nM.

Turning to `Cn1nnnc1SC[C@@H](NC(=O)OC(C)(C)C)C(=O)N[C@@H](Cc1ccccc1)[C@H](O)Cc1ccccc1C(=O)NC(C)(C)C` [Example 39A, [2R-(2R*,3S*,6S*)]-N-t-Butyl-2-[2-hydroxy-3-phenylmethyl-4-aza-5-oxo-6-N(t-butoxycarbonyl)amino-7-N-(methyl)tetrazolylthio]heptyl benzamide], the IC50 is more than 1600 nM. With `CC(C)(C)NC(=O)c1ccccc1C[C@@H](O)[C@H](Cc1ccccc1)NC(=O)[C@H](N)CSc1ccc(F)cc1` [Example 37B, [2R-(2R*,3S*,6S*)]-N-t-Butyl-2-[2-hydroxy-3-phenylmethyl-4-aza-5-oxo-6-amino-7-(p-fluorophenylthio)]heptyl benzamide], the IC50 is 5330 nM.

Turning to `CC(=O)N[C@H](COCc1ccccc1)C(=O)N[C@@H](Cc1ccccc1)[C@H](O)Cc1ccccc1C(=O)NC(C)(C)C` [Example 13C, [2R-(2R*, 3S*, 6R*)]-N-t-Butyl-2-[2-hydroxy-3-phenylmethyl-4-aza-5-oxo-6-N(ethanoyl)amino-7-benzyloxy]heptyl benzamide], the IC50 is 230 nM.

`CC(C)(C)NC(=O)c1ccccc1C[C@@H](O)[C@H](Cc1ccccc1)NC(=O)[C@H](CC(=O)OCc1ccccc1)NS(C)(=O)=O` [Example 31C, [2R-(2R*,3S*,6S*)]-N-t-Butyl-2-[2-hydroxy-3-phenylmethyl-4-aza-5-oxo-6-N(methylsulfonyl)amino-7-benzyloxycarbonyl]heptyl benzamide]: the IC30 (read-out: Fluorescence Assay IC30) turned out to be 1 µg/mL (≈ 1.6 µM). For the molecule `CC(C)(C)NC(=O)c1ccccc1C[C@@H](O)[C@H](Cc1ccccc1)NC(=O)[C@@H](COCc1ccccc1)NS(C)(=O)=O` [Example 14, [2R-(2R*, 3S*, 6R*)]-N-t-Butyl-2-[2-hydroxy-3-phenylmethyl-4-aza-5-oxo-6-N (methylsulfonyl)amino-7-benzyloxy]heptyl benzamide], the IC50 is 43.6 nM.

For the molecule `CC(=O)N[C@H](CSc1ccccc1)C(=O)N[C@@H](Cc1ccccc1)[C@H](O)Cc1ccccc1C(=O)NC(C)(C)C` (relative stereo) [Example 20A, [2R(2R*,3S*,6S*)]-N-t-Butyl-2-[2-hydroxy-3-phenylmethyl-4-aza-5-oxo-6-N(ethanoyl)amino-7-phenylthio]heptyl benzamide], the IC50 was 130 nM. As to `CC(=O)N[C@H](CSc1ccc2ccccc2n1)C(=O)N[C@@H](Cc1ccccc1)[C@H](O)Cc1ccccc1C(=O)NC(C)(C)C` [Example 24A, [2R-(2R*,3S*,6S*)]-N-t-Butyl-2-[2-hydroxy-3-phenylmethyl-4-aza-5-oxo-6-N(ethanoyl)amino-7-quinolin-2-ylthio]heptyl benzamide], the IC50 is 3.75 nM.

As for `CC(C)(C)NC(=O)c1ccccc1C[C@@H](O)[C@H](Cc1ccccc1)NC(=O)[C@H](N)CSc1ccccc1` [Example 22B, [2R-(2R*,3S*,6S*)]-N-t-Butyl-2-[2-hydroxy-3-phenylmethyl-4-aza-5-oxo-6-amino-7-phenylthio]heptyl benzamide], the IC3 was determined as 1 µg/mL. Turning to `CC(C)(C)NC(=O)c1ccccc1C[C@@H](O)[C@H](Cc1ccccc1)NC(=O)[C@@H](CS(=O)(=O)Cc1ccccc1)NS(C)(=O)=O` [Example 19E, [2R-(2R*,3S*,6S*)]-N-t-Butyl-2-[2-hydroxy-3-phenylmethyl-4-aza-5-oxo-6-N(methylsulfonyl)amino-7-benzylsulfonyl]heptyl benzamide], the half-inhibitory concentration (IC50) was 4.66 nM. On to `CC(C)(C)NC(=O)c1ccccc1C[C@@H](O)[C@H](Cc1ccccc1)NC(=O)[C@@H](CSc1ccccc1)NC(=O)OC(C)(C)C` [Example 22A, [2R-(2R *,3S*,6S*)]-N-t-Butyl-2-[2-hydroxy-3-phenylmethyl-4-aza-5-oxo-6-N(t-butoxycarbonyl)amino-7-phenylthio]heptyl benzamide], for which the IC3 was 2 µg/mL. For `CCCC(=O)N[C@H](CC(=O)OCc1ccccc1)C(=O)N[C@@H](Cc1ccccc1)[C@H](O)Cc1ccccc1C(=O)NC(C)(C)C` [Example 7, [2R-(2R*, 3S *, 6R*)]-N-t-butyl-2-[2-hydroxy-3-phenylmethyl-4-aza-5-oxo-6-N(butanoyl)amino-7-benzyloxycarbonyl]heptyl benzamide], the IC50 is 115 nM. In the case of `CSCC[C@H](NC(C)=O)C(=O)N[C@@H](Cc1ccccc1)[C@H](O)Cc1ccccc1C(=O)NC(C)(C)C` [Example 21, [2R-(2R*,3S*,6S*)]-N-t-Butyl-2-[2-hydroxy-3-phenylmethyl-4-aza-5-oxo-6-N(ethanoyl)amino-8-methylthio]octyl benzamide], the IC45 (read-out: Fluorescence Assay IC45) was found to be 1 µg/mL (≈ 1.95 µM). `CC(C)(C)NC(=O)c1ccccc1C[C@@H](O)[C@H](Cc1ccccc1)NC(=O)[C@H](CC(N)=O)NS(=O)(=O)c1ccc2ccccc2c1` [Example 34, [2R-(2R*,3S*,6S*)]-N-t-Butyl-2-[2-hydroxy-3-phenylmethyl-4-aza-5-oxo-6-N (naphth-2-ylsulfonyl)amino-7-carbamoyl]heptyl benzamide]: the IC50 is 2.02 nM. `CN(C)S(=O)(=O)N[C@H](CC(=O)OCc1ccccc1)C(=O)N[C@@H](Cc1ccccc1)[C@H](O)Cc1ccccc1C(=O)NC(C)(C)C` [Example 5, [2R-(2R*, 3S *, 6R*)]-N-t-butyl-2-[2-hydroxy-3-phenylmethyl-4-aza-5-oxo-6-N(dimethylaminosulfonyl)amino-7-benzyloxycarbonyl]heptyl benzamide]: the IC50 is 8.58 nM. As for `CC(C)(C)NC(=O)c1ccccc1C[C@@H](O)[C@H](Cc1ccccc1)NC(=O)[C@@H](CC(=O)NCc1ccc2ccccc2n1)NS(C)(=O)=O` [Example 11, [2R-(2R*, 3S*, 6R)]-N-t-butyl-2-[2-hydroxy-3-phenylmethyl-4-aza-5-oxo-6-N(methylsulfonyl)amino-8-oxo-9-aza-10-quinolin-2-yl]decyl benzamide], the IC50 was 2.52 nM. As to `CC(C)(C)NC(=O)c1ccccc1C[C@@H](O)[C@H](Cc1ccccc1)NC(=O)[C@@H](CSc1ccc2ccccc2c1)NC(=O)OC(C)(C)C` [Example 15A, [2R-(2R*,3S*,6S*)]-N-t-Butyl-2-[2-hydroxy-3-phenylmethyl-4-aza-5-oxo-6-N(t-butoxycarbonyl)amino-7-naphth-2-ylthio]heptyl benzamide], the IC50 was more than 1490 nM. Turning to `CC(C)(C)NC(=O)c1ccccc1C[C@@H](O)[C@H](Cc1ccccc1)NC(=O)[C@@H](CC(=O)Nc1ccc2ccccc2n1)NS(C)(=O)=O` [Example 9, [2R-(2R*, 3S*, 6R*)]-N-t-butyl-2-[2-hydroxy-3-phenylmethyl-4-aza-5-oxo-6-N-(methylsulphonyl)amino-8-oxo-8-N (quinolin-2-yl)amino]octyl benzamide], the IC50 is 13.6 nM.

(Values after patent publication US5554653A, “Inhibitors of HIV protease useful for the treatment of AIDS” (Eli Lilly and Company, priority 1992, dated 1996).)
